Source: patent publication US12552783B2, “Modulators of proteolysis and associated methods of use” (Arvinas Operations, Inc., priority 2018, dated 2026)

Assays:
[1] = target: T1, KRas (Homo sapiens, UniProt P01116, G12C); assay: KRas degradation in SW1573 cells by Western blot, normalized to GAPDH (data of Table 14); format: cell-based; conditions: SW1573 cells
Method: Cell Lines, Antibodies, and Reagents. NCI-H2030 (CRL-5914) and SW1573 (CRL-2170) cells were purchased from ATCC. Both cell lines are homozygous for the G12C mutation in KRas. NCI-H2030 cells were cultured in RPMI-1640 medium containing 1% penicillin-streptomycin and 10% fetal bovine serum (FBS). SW1573 cells were cultured in DMEM containing 1% penicillin-streptomycin and 10% FBS. The KRas detection antibody (Cat. No. LS-C175665) was purchased from LifeSpan Biosciences and was used at a dilution of 1:2000. GAPDH was detected using an antibody purchased from Cell Signaling Technology (Cat. No. 5174) and was diluted 1:3000. Secondary anti-mouse and anti-rabbit detection antibodies were purchased from Cell Signaling Technology (Cat. Nos. 7076 and 7074, respectively).
Compound Treatment and Western Blotting of the Data of Table 14. Either NCI-H2030 or SW1573 cells were plated in 12-well plates and allowed to adhere overnight at 37° C. in an incubator containing 5% CO2. The following day, the medium was replaced with the appropriate medium lacking FBS to induce starvation. Cells were returned to the incubator for an additional 24 hours following media exchange. […] Cells were treated with VHL-based compounds for 24 hours and all other compounds for 72 hours. Following treatment, cells were lysed in RIPA buffer (Thermo Fisher Cat. No. 89900) containing phosphatase (Thermo Fisher Cat. No. 1861277) and protease (Thermo Fisher Cat. No. 78429) inhibitor cocktails. Lysates were cleared at 13,000 rpm for 15 minutes and supernatants were assayed for total protein concentration using the Pierce BCA assay system (Thermo Fisher Cat. No. 23225). For each sample, 10 μg total protein was resolved on a 12% Bis-Tris gel and then transferred to a nitrocellulose membrane. After blocking in 3% BSA in TBST (Tris-buffered Saline with 0.1% Tween-20) for 1 hour at room temperature, membranes were probed with the primary antibody (LS Bio Cat. No. LS-C175665) overnight at 4° C. After incubation with the secondary antibody, the following day membranes were visualized using the SuperSignal™ West Femto substrate (Thermo Fisher Cat. No. 34095). The KRas signal in each lane was normalized to GAPDH and percent degradation was either estimated as less than 25% by visual inspection (C in Table 13) or quantitated relative to the DMSO control lane using BIO-RAD Image Lab 5.2.1, and all data was plotted using GraphPad PRISM 6.07.
DC50 is the half-maximal degradation concentration—i.e., the concentration at which 50% degradation is observed. DMax is the maximum degradation efficacy is achieved—i.e., the maximal degradation observed) degradation data.

[2] = target: T1, KRas; assay: KRas degradation in NCI-H2030 cells by Western blot, normalized to GAPDH (data of Table 14); format: cell-based; set-up: host or cells: NCI-H2030; conditions: for Percent Degradation at Indicated Concentration (μM): H2030; for Dmax: NCI-H2030
How it was run: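 After a day without serum, the G12C-homozygous cells received each compound at 0.3, 1 and 3 μM, with VHL-based degraders left for 24 h and other compounds for 72 h. DC50 is the concentration giving half-maximal degradation and DMax the maximal degradation, both taken from KRas levels normalized to GAPDH.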

Row | Percent Degradation at Indicated Concentration (μM) ([1]; 0.03 μM) | Percent Degradation at Indicated Concentration (μM) ([1]; 0.1 μM) | Percent Degradation at Indicated Concentration (μM) ([1]; 0.3 μM) | Percent Degradation at Indicated Concentration (μM) ([1]; 1 μM) | Percent Degradation at Indicated Concentration (μM) ([1]; 3 μM) | Percent Degradation at Indicated Concentration (μM) ([2]; 0.3 μM) | Percent Degradation at Indicated Concentration (μM) ([2]; 1 μM) | Percent Degradation at Indicated Concentration (μM) ([2]; 3 μM) | Dmax [2] | SMILES
1 | C (Percent Degradation: C ≤ 35) | C (Percent Degradation: C ≤ 35) | C (Percent Degradation: C ≤ 35) | – | – | – | – | – | – | C=CC(=O)N1CCN(c2nc(O[C@H](C)CN3CCC(OCCOCCOCCOCCOCCOc4cc(C(C(=O)N5C[C@H](O)C[C@H]5C(=O)N[C@@H](C)c5ccc(-c6scnc6C)cc5)C(C)C)on4)CC3)nc3c(F)c(-c4cc(O)cc5ccccc45)c(Cl)cc23)CC1 (stereo in doubt) [compound 532, (2S,4R)-1-((2R)-2-(3-((14-((1-((2R)-2-((4-(4-acryloylpiperazin-1-yl)-6-chloro-8-fluoro-7-(3-hydroxynaphthalen-1-yl)quinazolin-2-yl)oxy)propyl)piperidin-4-yl)oxy)-3,6,9,12-tetraoxatetradecyl)oxy)isoxazol-5-yl)-3-methylbutanoyl)-4-hydroxy-N-((S)-1-(4-(4-methylthiazol-5-yl)phenyl)ethyl)pyrrolidine-2-carboxamide]
2 | – | – | – | – | – | C (Percent Degradation: C ≤ 35) | C (Percent Degradation: C ≤ 35) | C (Percent Degradation: C ≤ 35) | ≤ 35% | C=CC(=O)N1CCN(c2nc(Nc3ccc(OCCOCCOCCOCC(=O)N[C@H](C(=O)N4C[C@H](O)C[C@H]4C(=O)N[C@@H](C)c4ccc(-c5scnc5C)cc4)C(C)(C)C)cc3)nc3c(F)c(-c4cc(O)cc5ccccc45)c(Cl)cc23)CC1 [compound 483, (2S,4R)-1-((2S)-14-(4-((4-(4-acryloylpiperazin-1-yl)-6-chloro-8-fluoro-7-(3-hydroxynaphthalen-1-yl)quinazolin-2-yl)amino)phenoxy)-2-(tert-butyl)-4-oxo-6,9,12-trioxa-3-azatetradecanoyl)-4-hydroxy-N-((S)-1-(4-(4-methylthiazol-5-yl)phenyl)ethyl)pyrrolidine-2-carboxamide]
3 | – | – | – | – | – | C (Percent Degradation: C ≤ 35) | C (Percent Degradation: C ≤ 35) | C (Percent Degradation: C ≤ 35) | ≤ 35% | C=CC(=O)N1CCN(c2nc(Nc3ccc(OCCOCCOCCOCCOCC(=O)N[C@H](C(=O)N4C[C@H](O)C[C@H]4C(=O)N[C@@H](C)c4ccc(-c5scnc5C)cc4)C(C)(C)C)cc3)nc3c(F)c(-c4cc(O)cc5ccccc45)c(Cl)cc23)CC1 [compound 484]
4 | – | – | – | – | – | C (Percent Degradation: C ≤ 35) | C (Percent Degradation: C ≤ 35) | C (Percent Degradation: C ≤ 35) | ≤ 35% | C=CC(=O)N1CCN(c2nc(OCCCN(C)CCOCCOCCOCCOCC(=O)N[C@H](C(=O)N3C[C@H](O)C[C@H]3C(=O)N[C@@H](C)c3ccc(-c4scnc4C)cc3)C(C)(C)C)nc3c(F)c(-c4cc(O)cc5ccccc45)c(Cl)cc23)CC1 [compound 497, (2S,4R)-1-((2S)-21-((4-(4-acryloylpiperazin-1-yl)-6-chloro-8-fluoro-7-(3-hydroxynaphthalen-1-yl)quinazolin-2-yl)oxy)-2-(tert-butyl)-18-methyl-4-oxo-6,9,12,15-tetraoxa-3,18-diazahenicosanoyl)-4-hydroxy-N-((S)-1-(4-(4-methylthiazol-5-yl)phenyl)ethyl)pyrrolidine-2 carboxamide]

Second part, the molecule before the results:

Row | SMILES | Percent Degradation at Indicated Concentration (μM) ([1]; 0.03 μM) | Percent Degradation at Indicated Concentration (μM) ([1]; 0.1 μM) | Percent Degradation at Indicated Concentration (μM) ([1]; 0.3 μM) | Percent Degradation at Indicated Concentration (μM) ([1]; 1 μM) | Percent Degradation at Indicated Concentration (μM) ([1]; 3 μM) | Percent Degradation at Indicated Concentration (μM) ([2]; 0.3 μM) | Percent Degradation at Indicated Concentration (μM) ([2]; 1 μM) | Percent Degradation at Indicated Concentration (μM) ([2]; 3 μM) | Dmax [2]
5 | Cc1ncsc1-c1ccc([C@H](C)NC(=O)[C@@H]2C[C@@H](O)CN2C(=O)[C@@H](NC(=O)COCCOC2CCN(C[C@@H](C)Oc3nc(N4CCN(C(=O)C(O)O)CC4)c4cc(Cl)c(-c5cc(O)cc6ccccc56)c(F)c4n3)CC2)C(C)(C)C)cc1 [compound 244, (2S,4R)-1-((2S)-2-(2-(2-((1-((2R)-2-((6-chloro-4-(4-(2,2-dihydroxyacetyl)piperazin-1-yl)-8-fluoro-7-(3-hydroxynaphthalen-1-yl)quinazolin-2-yl)oxy)propyl)piperidin-4-yl)oxy)ethoxy)acetamido)-3,3-dimethylbutanoyl)-4-hydroxy-N-((S)-1-(4-(4-methylthiazol-5-yl)phenyl)ethyl)pyrrolidine-2-carboxamide] | – | – | C (Percent Degradation: C ≤ 35) | C (Percent Degradation: C ≤ 35) | C (Percent Degradation: C ≤ 35) | – | – | – | –
6 | Cc1ncsc1-c1ccc([C@H](C)NC(=O)[C@@H]2C[C@@H](O)CN2C(=O)[C@@H](NC(=O)COCCOCCOC2CCN(C[C@@H](C)Oc3nc(N4CCN(C(=O)C(O)O)CC4)c4cc(Cl)c(-c5cc(O)cc6ccccc56)c(F)c4n3)CC2)C(C)(C)C)cc1 [compound 245, (2S,4R)-1-((2S)-2-(2-(2-(2-((1-((2R)-2-((6-chloro-4-(4-(2,2-dihydroxyacetyl)piperazin-1-yl)-8-fluoro-7-(3-hydroxynaphthalen-1-yl)quinazolin-2-yl)oxy)propyl)piperidin-4-yl)oxy)ethoxy)ethoxy)acetamido)-3,3-dimethylbutanoyl)-4-hydroxy-N-((S)-1-(4-(4-methylthiazol-5-yl)phenyl)ethyl)pyrrolidine-2-carboxamide] | – | C (Percent Degradation: C ≤ 35) | C (Percent Degradation: C ≤ 35) | C (Percent Degradation: C ≤ 35) | – | – | – | – | –
7 | Cc1ncsc1-c1ccc([C@H](C)NC(=O)[C@@H]2C[C@@H](O)CN2C(=O)[C@@H](NC(=O)COCCOCCOCCOC2CCN(C[C@@H](C)Oc3nc(N4CCN(C(=O)C(O)O)CC4)c4cc(Cl)c(-c5cc(O)cc6ccccc56)c(F)c4n3)CC2)C(C)(C)C)cc1 [compound 246, (2S,4R)-1-((2S)-2-(tert-butyl)-14-((1-((2R)-2-((6-chloro-4-(4-(2,2-dihydroxyacetyl)piperazin-1-yl)-8-fluoro-7-(3-hydroxynaphthalen-1-yl)quinazolin-2-yl)oxy)propyl)piperidin-4-yl)oxy)-4-oxo-6,9,12-trioxa-3-azatetradecanoyl)-4-hydroxy-N-((S)-1-(4-(4-methylthiazol-5-yl)phenyl)ethyl)pyrrolidine-2-carboxamide] | – | – | C (Percent Degradation: C ≤ 35) | C (Percent Degradation: C ≤ 35) | C (Percent Degradation: C ≤ 35) | – | – | – | –
8 | C=CC(=O)N1CCN(c2nc(OC3CCN(CCOCCOCCOCCOCC(=O)N[C@H](C(=O)N4C[C@H](O)C[C@H]4C(=O)N[C@@H](C)c4ccc(-c5scnc5C)cc4)C(C)(C)C)CC3)nc3c(F)c(-c4cc(O)cc5ccccc45)c(Cl)cc23)CC1 [compound 474, (2S,4R)-1-((2S)-17-(4-((4-(4-acryloylpiperazin-1-yl)-6-chloro-8-fluoro-7-(3-hydroxynaphthalen-1-yl)quinazolin-2-yl)oxy)piperidin-1-yl)-2-(tert-butyl)-4-oxo-6,9,12,15-tetraoxa-3-azaheptadecanoyl)-4-hydroxy-N-((S)-1-(4-(4-methylthiazol-5-yl)phenyl)ethyl)pyrrolidine-2 carboxamide] | – | – | – | – | – | C (Percent Degradation: C ≤ 35) | C (Percent Degradation: C ≤ 35) | C (Percent Degradation: C ≤ 35) | ≤ 35%
9 | C=CC(=O)N1CCN(c2nc(Nc3ccc(OCCOCCOCC(=O)N[C@H](C(=O)N4C[C@H](O)C[C@H]4C(=O)N[C@@H](C)c4ccc(-c5scnc5C)cc4)C(C)(C)C)cc3)nc3c(F)c(-c4cc(O)cc5ccccc45)c(Cl)cc23)CC1 [compound 482] | – | – | – | – | – | C (Percent Degradation: C ≤ 35) | C (Percent Degradation: C ≤ 35) | C (Percent Degradation: C ≤ 35) | ≤ 35%
